Calls of active or inactive are those of the source.
Assays:
Caspase-3 = target: T1, Caspase-3 (Homo sapiens, UniProt P42574); format: functional;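 further: Dose-response selectivity test against caspase-3 for candidate inhibitors of sentrin-specific proteases (SENPs)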
T1 sequence (P42574 whole entry): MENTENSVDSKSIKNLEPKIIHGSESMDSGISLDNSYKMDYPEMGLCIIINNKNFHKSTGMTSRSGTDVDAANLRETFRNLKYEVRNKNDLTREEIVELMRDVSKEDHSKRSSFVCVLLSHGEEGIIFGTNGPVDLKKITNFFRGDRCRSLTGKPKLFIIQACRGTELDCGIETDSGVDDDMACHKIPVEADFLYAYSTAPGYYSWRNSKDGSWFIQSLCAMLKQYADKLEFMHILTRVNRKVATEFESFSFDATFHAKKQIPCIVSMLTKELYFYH

[1] = target: T2, Sentrin-specific protease 6 (Homo sapiens, UniProt Q9GZR1); format: functional;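 further: Luminescence-based dose-response confirmatory assay of SENP6 inhibition, following up an ultra-high-throughput screen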
T2 sequence (Q9GZR1 whole entry): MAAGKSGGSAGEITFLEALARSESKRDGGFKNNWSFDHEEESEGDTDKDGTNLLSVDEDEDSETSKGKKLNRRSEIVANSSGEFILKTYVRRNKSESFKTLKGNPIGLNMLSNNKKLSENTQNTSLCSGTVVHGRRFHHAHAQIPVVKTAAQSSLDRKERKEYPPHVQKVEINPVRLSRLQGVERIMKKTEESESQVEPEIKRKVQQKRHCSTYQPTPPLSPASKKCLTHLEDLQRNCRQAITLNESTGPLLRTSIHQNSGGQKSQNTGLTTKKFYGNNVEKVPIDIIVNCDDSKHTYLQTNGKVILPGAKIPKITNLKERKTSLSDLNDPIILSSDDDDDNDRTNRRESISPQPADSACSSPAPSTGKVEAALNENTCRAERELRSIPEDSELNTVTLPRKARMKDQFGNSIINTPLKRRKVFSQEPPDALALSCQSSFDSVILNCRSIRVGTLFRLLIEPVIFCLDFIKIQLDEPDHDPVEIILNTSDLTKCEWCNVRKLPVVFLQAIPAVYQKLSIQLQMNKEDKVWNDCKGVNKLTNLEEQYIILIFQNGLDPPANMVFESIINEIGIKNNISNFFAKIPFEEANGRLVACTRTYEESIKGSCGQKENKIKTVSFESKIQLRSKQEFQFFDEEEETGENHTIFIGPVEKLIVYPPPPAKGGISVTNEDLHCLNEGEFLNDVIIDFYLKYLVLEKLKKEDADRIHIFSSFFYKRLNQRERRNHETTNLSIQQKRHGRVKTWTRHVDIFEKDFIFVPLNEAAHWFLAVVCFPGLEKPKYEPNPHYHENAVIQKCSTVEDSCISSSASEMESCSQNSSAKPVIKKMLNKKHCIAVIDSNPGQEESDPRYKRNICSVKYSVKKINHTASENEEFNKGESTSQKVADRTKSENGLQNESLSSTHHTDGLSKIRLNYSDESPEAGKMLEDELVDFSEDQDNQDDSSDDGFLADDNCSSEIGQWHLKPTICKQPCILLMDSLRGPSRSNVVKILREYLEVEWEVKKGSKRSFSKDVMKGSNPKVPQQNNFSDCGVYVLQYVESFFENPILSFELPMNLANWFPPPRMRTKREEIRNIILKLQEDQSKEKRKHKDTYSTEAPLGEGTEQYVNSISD

[2] = target: T3, Sentrin-specific protease 7 (Homo sapiens, UniProt Q9BQF6); format: functional;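 further: Luminescence-based dose-response confirmation of ultra-high-throughput screening hits, measuring inhibition of SENP7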
T3 sequence (Q9BQF6 whole entry): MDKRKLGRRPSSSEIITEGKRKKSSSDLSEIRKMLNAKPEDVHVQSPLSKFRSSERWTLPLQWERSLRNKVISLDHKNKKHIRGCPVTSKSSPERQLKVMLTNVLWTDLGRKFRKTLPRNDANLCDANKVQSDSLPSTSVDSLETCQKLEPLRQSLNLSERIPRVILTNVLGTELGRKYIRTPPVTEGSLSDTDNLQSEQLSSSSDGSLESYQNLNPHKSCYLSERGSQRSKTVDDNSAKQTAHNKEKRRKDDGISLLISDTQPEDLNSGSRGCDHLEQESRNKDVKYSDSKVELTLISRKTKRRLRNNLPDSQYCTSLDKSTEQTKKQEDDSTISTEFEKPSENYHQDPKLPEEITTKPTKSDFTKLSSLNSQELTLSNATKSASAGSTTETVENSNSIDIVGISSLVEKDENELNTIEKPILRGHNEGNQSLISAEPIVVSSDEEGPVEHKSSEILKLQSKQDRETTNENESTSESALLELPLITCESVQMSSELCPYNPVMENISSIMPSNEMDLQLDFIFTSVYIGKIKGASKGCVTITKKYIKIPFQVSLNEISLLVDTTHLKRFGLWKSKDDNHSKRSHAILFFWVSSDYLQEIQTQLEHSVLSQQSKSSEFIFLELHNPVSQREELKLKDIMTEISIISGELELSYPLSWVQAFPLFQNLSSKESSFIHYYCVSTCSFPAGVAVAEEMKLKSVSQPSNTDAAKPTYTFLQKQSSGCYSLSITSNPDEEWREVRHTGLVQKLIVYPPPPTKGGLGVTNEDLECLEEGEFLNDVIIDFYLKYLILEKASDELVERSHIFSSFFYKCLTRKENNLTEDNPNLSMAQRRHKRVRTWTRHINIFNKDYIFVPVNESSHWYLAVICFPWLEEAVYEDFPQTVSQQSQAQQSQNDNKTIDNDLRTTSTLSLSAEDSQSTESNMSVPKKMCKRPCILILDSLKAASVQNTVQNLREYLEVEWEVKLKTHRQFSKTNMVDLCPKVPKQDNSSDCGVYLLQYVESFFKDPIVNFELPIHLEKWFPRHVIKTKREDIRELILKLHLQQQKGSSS

[3] = target: T4, Sentrin-specific protease 8 (Homo sapiens, UniProt Q96LD8); format: functional;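 further: luminescence read-out of SENP8 inhibition, dose-response confirmation following an ultra-high-throughput screen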
T4 sequence (Q96LD8 whole entry): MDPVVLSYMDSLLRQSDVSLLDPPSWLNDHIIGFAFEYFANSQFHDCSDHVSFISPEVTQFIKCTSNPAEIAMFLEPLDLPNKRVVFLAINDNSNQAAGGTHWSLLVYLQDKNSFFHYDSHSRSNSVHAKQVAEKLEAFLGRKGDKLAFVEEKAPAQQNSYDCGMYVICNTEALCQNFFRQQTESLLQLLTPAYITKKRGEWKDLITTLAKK

[4] = target: Tyrosyl-DNA phosphodiesterase 2 (Homo sapiens, UniProt O95551); assay: human TDP2 enzyme inhibitors, dose response, biochemical, epi absorbance, IC50 (AID 743297)
Chain of Tyrosyl-DNA phosphodiesterase 2 (O95551 whole entry): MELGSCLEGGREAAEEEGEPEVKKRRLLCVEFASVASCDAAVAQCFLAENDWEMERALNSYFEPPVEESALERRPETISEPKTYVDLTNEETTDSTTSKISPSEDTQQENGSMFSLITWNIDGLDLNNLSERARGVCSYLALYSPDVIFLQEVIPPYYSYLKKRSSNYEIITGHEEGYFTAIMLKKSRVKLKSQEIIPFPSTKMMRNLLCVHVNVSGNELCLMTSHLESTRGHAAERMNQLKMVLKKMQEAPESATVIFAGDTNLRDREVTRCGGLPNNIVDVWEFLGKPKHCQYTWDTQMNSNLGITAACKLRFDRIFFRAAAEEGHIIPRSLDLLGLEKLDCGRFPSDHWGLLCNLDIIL

INS1 = assay: beta cell apoptosis inhibitors, cytokine rescue, dose response, luminescence, retest (AID 449756); format: functional, cell-based; conditions: Rattus norvegicus;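 further: cell death triggered by IL-1 beta plus TNF-alpha plus IFN-gamma mixture; protective hits raise ATP signal compared with cytokine alone wells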
[5] = target: Neurotensin receptor type 1 (Homo sapiens, UniProt P30989); format: functional;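 further: Image-based confirmatory dose-response assay measuring agonist activity at NTR1; NTR1-expressing U2OS osteosarcoma cells imaged for beta-arrestin GFP spot formation; agonist potency where compounds increase beta-arrestin recruitment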
Chain of Neurotensin receptor type 1 (P30989 whole entry): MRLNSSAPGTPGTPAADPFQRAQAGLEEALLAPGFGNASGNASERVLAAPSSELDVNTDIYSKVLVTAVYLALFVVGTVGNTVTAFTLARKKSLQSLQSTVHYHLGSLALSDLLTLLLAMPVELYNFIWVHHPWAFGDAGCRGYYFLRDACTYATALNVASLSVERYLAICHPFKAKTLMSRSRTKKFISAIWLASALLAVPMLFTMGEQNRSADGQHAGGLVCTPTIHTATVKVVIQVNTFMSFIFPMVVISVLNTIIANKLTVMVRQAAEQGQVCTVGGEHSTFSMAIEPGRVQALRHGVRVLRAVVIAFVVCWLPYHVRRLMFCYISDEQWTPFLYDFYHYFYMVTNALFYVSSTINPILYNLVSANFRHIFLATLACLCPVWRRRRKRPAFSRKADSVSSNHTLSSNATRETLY

[6] = target: Serine/threonine-protein phosphatase (Homo sapiens, UniProt Q9BPW0); assay: PP5 phosphatase inhibitors, dose response, biochemical, fluorescence (AID 2395)
Chain of Serine/threonine-protein phosphatase (Q9BPW0 whole entry): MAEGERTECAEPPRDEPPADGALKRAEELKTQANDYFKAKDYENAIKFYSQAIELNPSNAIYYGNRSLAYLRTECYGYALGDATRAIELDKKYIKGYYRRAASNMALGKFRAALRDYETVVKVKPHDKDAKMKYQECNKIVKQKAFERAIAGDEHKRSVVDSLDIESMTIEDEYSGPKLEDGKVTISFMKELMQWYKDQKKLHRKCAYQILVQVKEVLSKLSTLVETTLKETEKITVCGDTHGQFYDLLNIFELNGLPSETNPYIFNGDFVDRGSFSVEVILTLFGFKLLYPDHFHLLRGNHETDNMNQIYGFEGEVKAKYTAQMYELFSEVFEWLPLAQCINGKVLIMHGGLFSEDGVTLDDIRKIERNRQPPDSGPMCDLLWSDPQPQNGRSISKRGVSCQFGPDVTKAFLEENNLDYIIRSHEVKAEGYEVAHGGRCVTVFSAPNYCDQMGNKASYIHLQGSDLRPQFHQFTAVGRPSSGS

[7] = inhibitors of SNCA 5'UTR-driven reporter translation, confirmation, H4 neuroglioma cells, luminescence (AID 1988); format: functional, cell-based

COc1cc2c(cc1OC)-c1c(OC)c(OC)cc3c1C(C2)N(C)CC3 (stereo not given)
active: IC50 (Caspase-3) 0.907 µM | IC50 [1] 1.86 µM | IC50 [2] 4.63 µM | IC50 [3] 5.47 µM | IC50 [4] 4.6 µM

CCCCCCCCCCOC(=O)Cn1c(COc2cccc(OC)c2)[n+](C)c2ccccc21
active: AC50 (INS1) 2.94 µM | EC50 [5] 14.3 µM

CCc1ccc(S(=O)(=O)/N=C2\C=C(Nc3cccc(C(=O)O)c3)C(=O)c3ccccc32)cc1
active: IC50 [4] 2.2 µM | IC50 [6] 6.85 µM

COc1cc(OC)c(NC2=CC(=O)C(=O)c3ccccc32)cc1Cl
active: AC50 (INS1) 3.57 µM | IC50 (Caspase-3) 12.2 µM | IC50 [1] 2.25 µM | IC50 [2] 4.56 µM | IC50 [3] 3.62 µM | EC50 [7] 0.197 µM

Source: ChEMBL document CHEMBL1201862, “PubChem BioAssay data set” (2004)
